The source of these data is patent publication US9732078B2, “Therapeutic use of imidazopyridine derivatives” (SANOFI, priority 2012, dated 2017).

SMILES strings stand for the structures.

Common to all, as to format: cell-based
For data set [1], the system named is TCC97-7 bladder cancer tumour cells carrying the Ser249Cys mutation of FGF receptor 3. Briefly: Inhibition of serum-induced proliferation of TCC97-7 bladder cancer cells (count of Hoechst 33342-labelled nuclei after 3 days). Particulars: TCC97-7 cells in presence of serum. The method, then:
To do this, 2000 cells are seeded in the morning in 50 μl of complete medium (Ham-F/12, 1% FCS, 2 mM glutamine, non-essential amino acids, sodium pyruvate, 1% insulin/transferrin/selenium, hydrocortisone). In the evening, 50 μl of the various compounds are added at 0.02, 0.2, 2 or 20 μM after dilution in complete culture medium in order to obtain final concentrations of 0.01, 0.1, 1 and 10 μM. After 3 days, the cell proliferation is evaluated by measuring the number of nuclei at the bottom of each well corresponding to a number of cells. The nuclei are detected by means of labelling with Hoechst 33342 (Invitrogen, ref H3570). 100 μl of Hoechst 33342 diluted to 1/5000th in PBS are added to each well for 30 min at ambient temperature on non-fixed cells. The nuclei are detected by fluorescence at 350 nm at ×2 magnification with an Operetta (PerkinElmer) using the Acapella (PerkinElmer) imaging software and analysed using the Columbus (PerkinElmer) image analysis software. The percentage inhibition of the cell proliferation is calculated by considering the number of nuclei present in the wells in which the TCC97-7 cells are cultured in the absence of FGF-R antagonists to be 0% inhibition. 100% inhibition would correspond to a well no longer containing cells.

The test system is the same in data set [2]. Kind of data set: Cytotoxic effect: percentage of permeabilized (very fluorescent, Hoechst 33342) TCC97-7 cells. Particulars: 3 days. The method, then:
In parallel to their antiproliferative capacity, the potential cytotoxic effect of the FGF-R antagonists is measured by means of quantifying the number of cells of which the membranes are permeabilized. The appearance of pores in the plasma membrane of the cells corresponds to a state of cell death which enables the Hoechst 33342 to penetrate more easily into the cell. This is reflected by a very strong increase in the amount of fluorescence detected in the nuclei. The percentage of cells in a state of cell death is calculated by the ratio between the number of very fluorescent nuclei to the total number of nuclei, multiplied by 100. The observations are carried out in the same way as the quantification of the nuclei for the cell proliferation.

The subject of data set [3] is TCC97-7 bladder cancer cells carrying the Ser249Cys mutation of FGF receptor 3. Briefly: Reduction of intracellular ATP content of TCC97-7 cells (Cell Titer-Glo, 3 days, serum-supplemented medium). Particulars: TCC97-7 cells in presence of serum. The method, then:
Evaluation of the Capacity of the FGF-R Antagonists to Reduce the ATP Content of TCC97-7 Bladder Cancer Cells Carrying the Ser249Cys Mutation of FGF Receptor 3, Cultured in a Serum-Supplemented Medium
To do this, 3000 cells are seeded in 50 μl of complete medium (Ham-F/12, 1% FCS, […], non-essential amino acids, sodium pyruvate, 1% insulin/transferrin/selenium, hydrocortisone). 16 hours later, 50 μl of the various compounds are added at 0.2, 2, 20 and 60 μM after dilution in complete culture medium in order to obtain final concentrations of 0.1, 1, 10 and 30 μM. After 3 days, the ATP content of the cells is measured using the Cell Titer-Glo® Luminescent Cell Viability Assay kit (Promega, France) according to the supplier's recommendations. The percentage inhibition of the amount of intracellular ATP is calculated by considering the ATP content of the cells cultured in the absence of antagonist to be 0% inhibition. 100% inhibition would correspond to a well in which the ATP content is zero.
For orientation: ATP-based viability assays read luminescence as a measure of living cells.

For the compound `COCn1c(=O)n(Cc2ccc(F)cc2)c(=O)c2cc(C(=O)c3nc(-c4cccc(C(=O)[O-])c4)c4ccccn34)ccc21.[Na+]` [compound 71], the “Inhibition of proliferation (%)” value in data set [1] (0.01 μM) is given as 0%; in data set [1] (0.1 μM), 1%; in data set [1] (1 μM), 14%; in data set [1] (10 μM), 85%. Besides, the “Cytotoxicity (% of permeable cells)” value came out at 4% in data set [2] (0.01 μM), 4% in data set [2] (0.1 μM), 5% in data set [2] (1 μM) and 1% in data set [2] (10 μM). Moreover, the “Inhibition of the amount of intracellular ATP (%)” value (from here on “Inhibition of the amount … (%)”) is −4% in data set [3] (0.1 μM), −1% in data set [3] (1 μM) and 94% in data set [3] (10 μM).
On to `CCCn1c(=O)n(Cc2ccc(C)s2)c(=O)c2cc(C(=O)c3nc(-c4cccc(C(=O)[O-])c4)c4ccccn34)ccc21.[Na+]` [compound 224], for which the “Inhibition of proliferation (%)” value in data set [1] (0.01 μM) was 3%; in data set [1] (0.1 μM), 0%; in data set [1] (1 μM), 27%; in data set [1] (10 μM), 82%. Further, the “Cytotoxicity (% of permeable cells)” value in data set [2] (0.01 μM) is given as 3%; in data set [2] (0.1 μM), 3%; in data set [2] (1 μM) it was 4%; in data set [2] (10 μM) it was 9%. The “Inhibition of the amount … (%)” value in data set [3] (0.1 μM) is −1%; in data set [3] (1 μM), 20%; in data set [3] (10 μM), 83%.
In the case of `Cn1c(=O)n(Cc2cccc(F)c2)c(=O)c2cc(C(=O)c3nc(-c4cccc(C(N)=O)c4)c4ccccn34)ccc21` [compound 108], the “Inhibition of proliferation (%)” value in data set [1] (0.01 μM) is recorded as −4%; in data set [1] (0.1 μM), −5%; in data set [1] (1 μM) it was 6%; in data set [1] (10 μM), 22%. Also, the “Cytotoxicity (% of permeable cells)” value was 4% in data set [2] (0.01 μM), 5% in data set [2] (0.1 μM), 4% in data set [2] (1 μM) and 4% in data set [2] (10 μM).
`Cn1c(=O)n(CCc2ccc(F)cc2)c(=O)c2cc(C(=O)c3nc(-c4cccc(C(=O)[O-])c4)c4ccccn34)ccc21.[Na+]` [compound 148]: the “Inhibition of proliferation (%)” value is listed as 12% in data set [1] (0.01 μM), 6% in data set [1] (0.1 μM), 15% in data set [1] (1 μM) and 81% in data set [1] (10 μM). Further, the “Cytotoxicity (% of permeable cells)” value stood at 4% in data set [2] (0.01 μM), 4% in data set [2] (0.1 μM), 4% in data set [2] (1 μM) and 11% in data set [2] (10 μM). For the same compound, the “Inhibition of the amount … (%)” value in data set [3] (0.1 μM) is given as 1%; in data set [3] (1 μM), 8%; in data set [3] (10 μM) it was 66%.
Turning to `Cn1c(=O)n(Cc2ccc(F)cc2)c(=O)c2cc(C(=O)c3nc(-c4cccc(C(=O)[O-])c4)c4ccccn34)ccc21.[Na+]` [compound 49, Sodium salt of 3-(3-{[3-(4-fluorobenzyl)-1-methyl-2,4-dioxo-1,2,3,4-tetrahydroquinazolin-6-yl]carbonyl}imidazo[1,5-a]pyridin-1-yl)benzoic acid], the “Inhibition of proliferation (%)” value in data set [1] (0.1 μM) was found to be 9%; in data set [1] (1 μM), 55%; in data set [1] (10 μM) it was 81%. Moreover, the “Cytotoxicity (% of permeable cells)” value is 5% in data set [2] (0.01 μM), 5% in data set [2] (0.1 μM), 6% in data set [2] (1 μM) and 12% in data set [2] (10 μM). In addition, the figures for the “Inhibition of the amount … (%)” value in data set [3] (0.1 μM), in data set [3] (1 μM) and in data set [3] (10 μM) were −2%, 14% and 67%, respectively.
Turning to `Cc1nnc(-c2cccc(-c3nc(C(=O)c4ccc5c(c4)c(=O)n(Cc4ccc(F)cc4)c(=O)n5C)n4ccccc34)c2)o1` [compound 140], the “Inhibition of proliferation (%)” value is 0% in data set [1] (0.01 μM), −1% in data set [1] (0.1 μM), −7% in data set [1] (1 μM) and 26% in data set [1] (10 μM). Further, the “Cytotoxicity (% of permeable cells)” value in data set [2] (0.01 μM) is on record as 1%; in data set [2] (0.1 μM) it was 1%; in data set [2] (1 μM) it was 1%; in data set [2] (10 μM) it was 2%.
Consider `Cn1c(=O)n(Cc2ccc(F)cc2)c(=O)c2cc(C(=O)c3ncc4ccccn34)ccc21` [compound 226], for which the “Inhibition of proliferation (%)” value is 3% in data set [1] (0.01 μM), 8% in data set [1] (0.1 μM), 28% in data set [1] (1 μM) and 73% in data set [1] (10 μM). Moreover, the “Cytotoxicity (% of permeable cells)” value is recorded as 5% in data set [2] (0.01 μM), 6% in data set [2] (0.1 μM), 10% in data set [2] (1 μM) and 25% in data set [2] (10 μM). Moreover, the “Inhibition of the amount … (%)” value in data set [3] (0.1 μM) is given as −1%; in data set [3] (1 μM), 5%; in data set [3] (10 μM), 41%.
On to `CCCn1c(=O)n(CCCC(C)C)c(=O)c2cc(C(=O)c3nc(-c4cccc(C(=O)[O-])c4)c4ccccn34)ccc21.[Na+]` [compound 207], for which the “Inhibition of proliferation (%)” value came to 2% in data set [1] (0.01 μM), 7% in data set [1] (0.1 μM), 45% in data set [1] (1 μM) and 82% in data set [1] (10 μM). Besides, the “Cytotoxicity (% of permeable cells)” value in data set [2] (0.01 μM) is listed as 5%; in data set [2] (0.1 μM), 4%; in data set [2] (1 μM) it was 5%; in data set [2] (10 μM) it was 23%. The “Inhibition of the amount … (%)” value in data set [3] (0.1 μM) is given as 10%; in data set [3] (1 μM), 23%; in data set [3] (10 μM), 62%.
For the compound `CCOC(=O)c1cccc(-c2nc(C(=O)c3ccc4c(c3)c(=O)n(Cc3ccc(F)cc3)c(=O)n4C)n3ccccc23)c1` [compound 79], the “Inhibition of proliferation (%)” value in data set [1] (0.01 μM) was 5%; in data set [1] (0.1 μM), 0%; in data set [1] (1 μM), 17%; in data set [1] (10 μM), 71%. Also, the “Cytotoxicity (% of permeable cells)” value in data set [2] (0.01 μM) is 1%; in data set [2] (0.1 μM), 1%; in data set [2] (1 μM) it was 2%; in data set [2] (10 μM), 10%. For the same compound, the entries for the “Inhibition of the amount … (%)” value in data set [3] (0.1 μM), in data set [3] (1 μM) and in data set [3] (10 μM) were −6%, 7% and 72%, respectively.
In the case of `Cc1ccc(Cn2c(=O)c3cc(C(=O)c4nc(-c5cccnc5)c5ccccn45)ccc3n(C)c2=O)s1` [compound 220], the “Inhibition of proliferation (%)” value in data set [1] (0.01 μM) is reported as 4%; in data set [1] (0.1 μM), 3%; in data set [1] (1 μM) it was 13%; in data set [1] (10 μM), 49%. In addition, the “Cytotoxicity (% of permeable cells)” value in data set [2] (0.01 μM) was 6%; in data set [2] (0.1 μM), 5%; in data set [2] (1 μM), 5%; in data set [2] (10 μM), 11%. The “Inhibition of the amount … (%)” value in data set [3] (0.1 μM) is 6%; in data set [3] (1 μM) it was 10%; in data set [3] (10 μM), 16%; in data set [3] (30 μM), 60%.
